PubChem BioAssay (NCI)
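48-hour exposure; five concentrations; linearly interpolated endpoints. Here, GI50 denotes the concentration required for 50% inhibition of growth. TGI denotes the concentration required for complete inhibition of growth.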

Columns and labels:
Assay in all cases: inhibition of tumour cell growth, NCI panel, 48 h
[1] = system: 786-0 renal
[2] = system: A549 NSCLC
[3] = system: BT-549 breast
[4] = system: CAKI-1 renal
[5] = system: CCRF-CEM leukemia
[6] = system: DU-145 prostate
[7] = system: EKVX NSCLC
[8] = system: HCC-2998 colon
[9] = system: HCT-116 colon
[10] = system: HCT-15 colon
[11] = system: HL-60(TB) leukemia
[12] = system: HOP-62 NSCLC
[13] = system: HOP-92 NSCLC
[14] = system: HS 578T breast
[15] = system: IGROV1 ovarian
[16] = system: K-562 leukemia
[17] = system: KM12 colon
[18] = system: M14 melanoma
[19] = system: MCF7 breast
[20] = system: MDA-MB-231 breast
[21] = system: MDA-MB-435
[22] = system: MOLT-4 leukemia
[23] = system: NCI-H226 lung
[24] = system: NCI-H23 lung
[25] = system: NCI-H460 lung
[26] = system: NCI-H522 lung
[27] = system: NCI/ADR-RES ovarian
[28] = system: OVCAR-3 ovarian
[29] = system: OVCAR-5 ovarian
[30] = system: OVCAR-8 ovarian
[31] = system: PC-3 prostate
[32] = system: RPMI-8226 leukemia
[33] = system: SF-268 CNS
[34] = system: SF-295 CNS
[35] = system: SF-539 CNS
[36] = system: SK-MEL-2 melanoma
[37] = system: SK-MEL-5 melanoma
[38] = system: SN12C renal
[39] = system: SR leukemia
[40] = system: SW-620 colon
[41] = system: TK-10 renal
[42] = system: UO-31 renal
[43] = system: ACHN renal
[44] = system: COLO 205 colon
[45] = system: HT29 colon
[46] = system: LOX IMVI melanoma
[47] = system: MALME-3M melanoma
[48] = system: OVCAR-4 ovarian
[49] = system: RXF 393 renal
[50] = system: SK-MEL-28 melanoma
[51] = system: SK-OV-3 ovarian
[52] = system: SNB-19 CNS
[53] = system: SNB-75 CNS
[54] = system: T-47D breast
[55] = system: U251 CNS
[56] = system: UACC-257 melanoma
[57] = system: UACC-62 melanoma

## COc1cc(CNc2cnc3cc(N)cc(N)c3n2)cc(OC)c1
[1]
  GI50: 15.4 µM
  TGI: 30 µM
[2]
  GI50: 33 µM
  TGI: > 100 µM
[3]
  GI50: 20.2 µM
  TGI: 51.4 µM
[4]
  GI50: 24.8 µM
  TGI: 52.3 µM
[5]
  GI50: 18.5 µM
  TGI: 52.3 µM
[6]
  GI50: 41.4 µM
  TGI: > 100 µM
[7]
  GI50: 27.3 µM
  TGI: 67.4 µM
[8]
  GI50: 11.7 µM
  TGI: 25 µM
[9]
  GI50: 16.3 µM
  TGI: 29.8 µM
[10]
  GI50: 17.6 µM
  TGI: 38.1 µM
[11]
  GI50: 32.9 µM
  TGI: > 100 µM
[12]
  GI50: 14.9 µM
  TGI: 44.1 µM
[13]
  GI50: 10.3 µM
  TGI: 25.9 µM
[14]
  GI50: 17 µM
  TGI: 52 µM
[15]
  GI50: 33.6 µM
  TGI: > 100 µM
[16]
  GI50: 11.3 µM
  TGI: 47 µM
[17]
  GI50: 22.5 µM
  TGI: 71.8 µM
[18]
  GI50: 18.1 µM
  TGI: 33.8 µM
[19]
  GI50: 24.5 µM
  TGI: > 100 µM
[20]
  GI50: 5.58 µM
  TGI: 20.4 µM
[21]
  GI50: 21.1 µM
  TGI: 39.5 µM
[22]
  GI50: 36.9 µM
  TGI: > 100 µM
[23]
  GI50: 17.4 µM
  TGI: 55.3 µM
[24]
  GI50: 17.3 µM
  TGI: 39.8 µM
[25]
  GI50: 54.4 µM
  TGI: > 100 µM
[26]
  GI50: 23.8 µM
  TGI: 78.2 µM
[27]
  GI50: 34.3 µM
  TGI: > 100 µM
[28]
  GI50: 19.6 µM
  TGI: 48.3 µM
[29]
  GI50: 17.6 µM
  TGI: 48 µM
[30]
  GI50: 22.6 µM
  TGI: 57.6 µM
[31]
  GI50: 15.1 µM
  TGI: 35.2 µM
[32]
  GI50: 6 µM
  TGI: 20 µM
[33]
  GI50: 15.8 µM
  TGI: 37.7 µM
[34]
  GI50: 26.5 µM
  TGI: 71.9 µM
[35]
  GI50: 23.2 µM
  TGI: 46.9 µM
[36]
  GI50: 66.7 µM
  TGI: > 100 µM
[37]
  GI50: 18.7 µM
  TGI: 36.1 µM
[38]
  GI50: 15.2 µM
  TGI: 33.3 µM
[39]
  GI50: 18.8 µM
  TGI: > 100 µM
[40]
  GI50: 24.6 µM
  TGI: 64.2 µM
[41]
  GI50: 18.4 µM
  TGI: 57.6 µM
[42]
  GI50: 38.2 µM
  TGI: > 100 µM

## COc1ccc(CNc2nc(NCc3ccc(OC)c(OC)c3)nc(NC3CCCCC3)n2)cc1
[1]
  TGI: > 100 µM
[2]
  TGI: > 100 µM
[43]
  TGI: > 100 µM
[3]
  TGI: > 100 µM
[4]
  TGI: > 100 µM
[5]
  TGI: > 100 µM
[44]
  TGI: 21 µM
[6]
  TGI: > 100 µM
[7]
  TGI: > 100 µM
[9]
  TGI: > 100 µM
[10]
  TGI: 5.64 µM
[11]
  TGI: > 100 µM
[13]
  TGI: > 100 µM
[45]
  TGI: > 100 µM
[15]
  TGI: > 100 µM
[16]
  TGI: > 100 µM
[17]
  TGI: 17 µM
[46]
  TGI: > 100 µM
[18]
  TGI: > 100 µM
[47]
  TGI: > 100 µM
[19]
  TGI: > 100 µM
[20]
  TGI: > 100 µM
[21]
  TGI: > 100 µM
[22]
  TGI: > 100 µM
[23]
  TGI: > 100 µM
[24]
  TGI: 52.2 µM
[25]
  TGI: > 100 µM
[26]
  TGI: 5.74 µM
[27]
  TGI: 17.5 µM
[28]
  TGI: > 100 µM
[48]
  TGI: > 100 µM
[29]
  TGI: > 100 µM
[30]
  TGI: > 100 µM
[31]
  TGI: > 100 µM
[49]
  TGI: 6.22 µM
[34]
  TGI: > 100 µM
[35]
  TGI: 8.46 µM
[36]
  TGI: > 100 µM
[50]
  TGI: > 100 µM
[37]
  TGI: 7.41 µM
[51]
  TGI: > 100 µM
[38]
  TGI: > 100 µM
[52]
  TGI: > 100 µM
[53]
  TGI: > 100 µM
[39]
  TGI: > 100 µM
[40]
  TGI: > 100 µM
[54]
  TGI: > 100 µM
[41]
  TGI: > 100 µM
[55]
  TGI: > 100 µM
[56]
  TGI: > 100 µM
[57]
  TGI: > 100 µM
[42]
  TGI: > 100 µM
